From ChEMBL document CHEMBL5625219, “Design, synthesis fusidic acid derivatives alleviate acute lung injury via inhibiting MAPK/NF-κB/NLRP3 pathway” (Eur J Med Chem, 2023)

Columns and labels:
[1] = Cytotoxicity against mouse RAW264.7 cells assessed as inhibition of cell growth incubated for 24 hrs by MTT assay; format: toxicity, cell-based
RAW264.7 = experiment: Cytotoxicity against mouse RAW264.7 cells assessed as reduction in cell viability at 30 uM incubated for 24 hrs by MTT assay relative to control; format: toxicity, cell-based; settings: raw264.7, 24 h

Row | Structure (SMILES) | IC50 at 24 h [1] [µM] | Activity (RAW264.7) [%]
1 | CC(=O)O[C@H]1C[C@@]2(C)[C@@H](C[C@@H](O)[C@H]3[C@@]4(C)CC[C@@H](O)[C@@H](C)[C@@H]4CC[C@@]32C)/C1=C(\CCC=C(C)C)C(=O)OCc1cn(Cc2ccc([N+](=O)[O-])cc2)nn1 | 56.8 | 101.85
2 | CC(=O)O[C@H]1C[C@@]2(C)[C@@H](C[C@@H](O)[C@H]3[C@@]4(C)CC[C@@H](O)[C@@H](C)[C@@H]4CC[C@@]32C)/C1=C(\CCC=C(C)C)C(=O)OCc1cn(Cc2ccccc2)nn1 | 88.3 | 98.53
3 | COc1ccc(-c2cc(COC(=O)/C(CCC=C(C)C)=C3\[C@@H](OC(C)=O)C[C@@]4(C)[C@H]3C[C@@H](O)[C@H]3[C@@]5(C)CC[C@@H](O)[C@@H](C)[C@@H]5CC[C@@]34C)on2)cc1OC | 87.3 | 100.7
4 | CC(=O)O[C@H]1C[C@@]2(C)[C@@H](C[C@@H](O)[C@H]3[C@@]4(C)CC[C@@H](O)[C@@H](C)[C@@H]4CC[C@@]32C)/C1=C(\CCC=C(C)C)C(=O)OCc1cc(-c2ccc(C)cc2)no1 | 75.9 | 104.48
5 | COc1cc(Cn2cc(COC(=O)/C(CCC=C(C)C)=C3\[C@@H](OC(C)=O)C[C@@]4(C)[C@H]3C[C@@H](O)[C@H]3[C@@]5(C)CC[C@@H](O)[C@@H](C)[C@@H]5CC[C@@]34C)nn2)cc(OC)c1OC | 56.1 | 97.45
6 | CC(=O)O[C@H]1C[C@@]2(C)[C@@H](C[C@@H](O)[C@H]3[C@@]4(C)CC[C@@H](O)[C@@H](C)[C@@H]4CC[C@@]32C)/C1=C(\CCC=C(C)C)C(=O)OCc1cn(Cc2ccc(Cl)cc2)nn1 | 72.5 | 90.57
7 | CC(=O)O[C@H]1C[C@@]2(C)[C@@H](C[C@@H](O)[C@H]3[C@@]4(C)CC[C@@H](O)[C@@H](C)[C@@H]4CC[C@@]32C)/C1=C(\CCC=C(C)C)C(=O)OCc1cn(Cc2ccc(Cl)c(Cl)c2)nn1 | 49.8 | 100.62
8 | COc1ccc(Cn2cc(COC(=O)/C(CCC=C(C)C)=C3\[C@@H](OC(C)=O)C[C@@]4(C)[C@H]3C[C@@H](O)[C@H]3[C@@]5(C)CC[C@@H](O)[C@@H](C)[C@@H]5CC[C@@]34C)nn2)cc1 | 110 | 100.31
9 | CC(=O)O[C@H]1C[C@@]2(C)[C@@H](C[C@@H](O)[C@H]3[C@@]4(C)CC[C@@H](O)[C@@H](C)[C@@H]4CC[C@@]32C)/C1=C(\CCC=C(C)C)C(=O)OCc1cn(Cc2ccc(Br)cc2)nn1 | 88.7 | 100.93
10 | CC(=O)O[C@H]1C[C@@]2(C)[C@@H](C[C@@H](O)[C@H]3[C@@]4(C)CC[C@@H](O)[C@@H](C)[C@@H]4CC[C@@]32C)/C1=C(\CCC=C(C)C)C(=O)OCc1nnc(-c2ccc(Cl)cc2)o1 | 44.3 | 103.01
11 | CC(=O)O[C@H]1C[C@@]2(C)[C@@H](C[C@@H](O)[C@H]3[C@@]4(C)CC[C@@H](O)[C@@H](C)[C@@H]4CC[C@@]32C)/C1=C(\CCC=C(C)C)C(=O)OCc1cc(-c2ccc(Cl)c(Cl)c2)no1 | 44.6 | 94.05
12 | CC(=O)O[C@H]1C[C@@]2(C)[C@@H](C[C@@H](O)[C@H]3[C@@]4(C)CC[C@@H](O)[C@@H](C)[C@@H]4CC[C@@]32C)/C1=C(\CCC=C(C)C)C(=O)OCc1nnc(-c2ccc(F)cc2)o1 | 47.9 | 102.47
13 | COc1ccc(-c2nnc(COC(=O)/C(CCC=C(C)C)=C3\[C@@H](OC(C)=O)C[C@@]4(C)[C@H]3C[C@@H](O)[C@H]3[C@@]5(C)CC[C@@H](O)[C@@H](C)[C@@H]5CC[C@@]34C)o2)cc1 | 114 | 101.7
14 | CC(=O)O[C@H]1C[C@@]2(C)[C@@H](C[C@@H](O)[C@H]3[C@@]4(C)CC[C@@H](O)[C@@H](C)[C@@H]4CC[C@@]32C)/C1=C(\CCC=C(C)C)C(=O)OCc1nnc(-c2ccc([N+](=O)[O-])cc2)o1 | 100 | 103.17
15 | CC(=O)O[C@H]1C[C@@]2(C)[C@@H](C[C@@H](O)[C@H]3[C@@]4(C)CC[C@@H](O)[C@@H](C)[C@@H]4CC[C@@]32C)/C1=C(\CCC=C(C)C)C(=O)OCc1cn(Cc2ccc(C)cc2)nn1 | 121 | 105.96
16 | COc1ccc(-n2cc(COC(=O)/C(CCC=C(C)C)=C3\[C@@H](OC(C)=O)C[C@@]4(C)[C@H]3C[C@@H](O)[C@H]3[C@@]5(C)CC[C@@H](O)[C@@H](C)[C@@H]5CC[C@@]34C)nn2)cc1OC | 76.6 | 102.78
17 | CC(=O)O[C@H]1C[C@@]2(C)[C@@H](C[C@@H](O)[C@H]3[C@@]4(C)CC[C@@H](O)[C@@H](C)[C@@H]4CC[C@@]32C)/C1=C(\CCC=C(C)C)C(=O)OCc1cc(-c2ccc(F)cc2)no1 | 62.4 | 103.63

Row | Structure (SMILES) | IC50 at 24 h [1] [µM] | Activity (RAW264.7) [%]
18 | CC(=O)O[C@H]1C[C@@]2(C)[C@@H](C[C@@H](O)[C@H]3[C@@]4(C)CC[C@@H](O)[C@@H](C)[C@@H]4CC[C@@]32C)/C1=C(\CCC=C(C)C)C(=O)OCc1cn(-c2ccc(Br)cc2)nn1 | 54.5 | 92.58
19 | COc1cc(-c2nnc(COC(=O)/C(CCC=C(C)C)=C3\[C@@H](OC(C)=O)C[C@@]4(C)[C@H]3C[C@@H](O)[C@H]3[C@@]5(C)CC[C@@H](O)[C@@H](C)[C@@H]5CC[C@@]34C)o2)cc(OC)c1OC | 129 | 97.84
20 | CC(=O)O[C@H]1C[C@@]2(C)[C@@H](C[C@@H](O)[C@H]3[C@@]4(C)CC[C@@H](O)[C@@H](C)[C@@H]4CC[C@@]32C)/C1=C(\CCC=C(C)C)C(=O)OCc1cc(-c2ccc(Br)cc2)no1 | 40.9 | 96.29
21 | COc1ccc(-c2cc(COC(=O)/C(CCC=C(C)C)=C3\[C@@H](OC(C)=O)C[C@@]4(C)[C@H]3C[C@@H](O)[C@H]3[C@@]5(C)CC[C@@H](O)[C@@H](C)[C@@H]5CC[C@@]34C)on2)cc1 | 77.2 | 97.68
22 | CC(=O)O[C@H]1C[C@@]2(C)[C@@H](C[C@@H](O)[C@H]3[C@@]4(C)CC[C@@H](O)[C@@H](C)[C@@H]4CC[C@@]32C)/C1=C(\CCC=C(C)C)C(=O)OCc1cn(-c2ccc(Cl)c(Cl)c2)nn1 | 56.1 | 104.17
23 | CC(=O)O[C@H]1C[C@@]2(C)[C@@H](C[C@@H](O)[C@H]3[C@@]4(C)CC[C@@H](O)[C@@H](C)[C@@H]4CC[C@@]32C)/C1=C(\CCC=C(C)C)C(=O)OCc1nnc(-c2ccccc2)o1 | 40.1 | 102.94
24 | COc1cc(-n2cc(COC(=O)/C(CCC=C(C)C)=C3\[C@@H](OC(C)=O)C[C@@]4(C)[C@H]3C[C@@H](O)[C@H]3[C@@]5(C)CC[C@@H](O)[C@@H](C)[C@@H]5CC[C@@]34C)nn2)cc(OC)c1OC | 120 | 98.92
25 | COc1cc(-c2cc(COC(=O)/C(CCC=C(C)C)=C3\[C@@H](OC(C)=O)C[C@@]4(C)[C@H]3C[C@@H](O)[C@H]3[C@@]5(C)CC[C@@H](O)[C@@H](C)[C@@H]5CC[C@@]34C)on2)cc(OC)c1OC | 50.6 | 95.67
26 | CC(=O)O[C@H]1C[C@@]2(C)[C@@H](C[C@@H](O)[C@H]3[C@@]4(C)CC[C@@H](O)[C@@H](C)[C@@H]4CC[C@@]32C)/C1=C(\CCC=C(C)C)C(=O)OCc1cn(-c2ccc([N+](=O)[O-])cc2)nn1 | 120 | 101.62
27 | CC(=O)O[C@H]1C[C@@]2(C)[C@@H](C[C@@H](O)[C@H]3[C@@]4(C)CC[C@@H](O)[C@@H](C)[C@@H]4CC[C@@]32C)/C1=C(\CCC=C(C)C)C(=O)OCc1cc(-c2ccccc2)no1 | 93 | 104.11
28 | CC(=O)O[C@H]1C[C@@]2(C)[C@@H](C[C@@H](O)[C@H]3[C@@]4(C)CC[C@@H](O)[C@@H](C)[C@@H]4CC[C@@]32C)/C1=C(\CCC=C(C)C)C(=O)OCc1cn(Cc2ccc(F)cc2)nn1 | 68.7 | 103.74
29 | CC(=O)O[C@H]1C[C@@]2(C)[C@@H](C[C@@H](O)[C@H]3[C@@]4(C)CC[C@@H](O)[C@@H](C)[C@@H]4CC[C@@]32C)/C1=C(\CCC=C(C)C)C(=O)OCc1cn(-c2ccc(Cl)cc2)nn1 | 119 | 101.39
30 | CC(=O)O[C@H]1C[C@@]2(C)[C@@H](C[C@@H](O)[C@H]3[C@@]4(C)CC[C@@H](O)[C@@H](C)[C@@H]4CC[C@@]32C)/C1=C(\CCC=C(C)C)C(=O)OCc1cc(-c2ccc(Cl)cc2)no1 | 42 | 103.94
31 | CC(=O)O[C@H]1C[C@@]2(C)[C@@H](C[C@@H](O)[C@H]3[C@@]4(C)CC[C@@H](O)[C@@H](C)[C@@H]4CC[C@@]32C)/C1=C(\CCC=C(C)C)C(=O)OCc1cn(-c2ccc(F)cc2)nn1 | 46.5 | 100.85
32 | COc1ccc(-n2cc(COC(=O)/C(CCC=C(C)C)=C3\[C@@H](OC(C)=O)C[C@@]4(C)[C@H]3C[C@@H](O)[C@H]3[C@@]5(C)CC[C@@H](O)[C@@H](C)[C@@H]5CC[C@@]34C)nn2)cc1 | 43.6 | 99.38
33 | CC(=O)O[C@H]1C[C@@]2(C)[C@@H](C[C@@H](O)[C@H]3[C@@]4(C)CC[C@@H](O)[C@@H](C)[C@@H]4CC[C@@]32C)/C1=C(\CCC=C(C)C)C(=O)OCc1cn(-c2ccc(C)cc2)nn1 | 89.6 | 96.68
